Four compounds from US20210206763A1, “Anti-Proliferative Agents” (FEMTOGENIX LIMITED, priority 2015, published 2021) can be followed below.

For test [1], the system named is AP-1 Transcription Factor duplex DNA sequence. In words: FRET DNA melting assay with transcription factor duplex DNA. The test is classed as binding. The following applies: 1 μM ligand concentration; 24 hours incubation. As for the experimental part:
(§1) Oligonucleotide sequences used for the FRET assays were purchased from Eurogentec, Southampton, UK: TAMRA (6-carboxytetramethylrhodamine) and FAM (6-carboxyfluorescein) are acceptor and donor fluorophores, respectively. From 20 μM stock solutions, 400 nM solutions in FRET buffer (optimized as 50 mM potassium, 50 mM cacodylate, pH 7.4) were prepared prior to use. The oligonucleotides were annealed through heating the samples to 90° C. for 10 mins followed by cooling to room temperature and storing at this temperature for 5 h. Dilutions from the initial 5 mM DMSO stock solution were performed using FRET buffer. Annealed DNA (50 μL) and sample solution (50 μL) were added to each well of a 96-well plate (MJ Research, Waltham, Mass.), and processed in a DNA Engine Opticon (MJ Research). Fluorescence readings were taken at intervals of 0.5° C. over the range 30-100° C., with a constant temperature maintained for 30 seconds prior to each reading. Incident radiation of 450-495 nm was used, with detection at 515-545 nm. The raw data were imported into the program Origin (Version 7.0, OringinLab Corp.), and the graphs were smoothed using a 10-point running average, and then normalized. Determination of melting temperatures was based on values at the maxima of the first derivative of the smoothed melting curves using a script. The difference between the melting temperature of each sample and that of the blank (ΔTm) was used for comparative purposes.

Test [2] has as its system NFκB Transcription Factor duplex DNA sequence. Described as above. Particulars: 1 μM ligand concentration; 24 hours incubation. The class given is binding. As for the experimental part: as §1
For test [3], the system named is HeLa (Cervical cancer cell line). Kind of test: MTT cytotoxicity assay of C8-linked PDD monomers. Particulars: Homo sapiens, 72 hours exposure. The test is classed as cell-based. As for the experimental part:
(§2) MDA MB231 (triple negative human breast cancer) was obtained from the American Type Culture Collection. The cell-line was maintained in monolayer culture in 75 cm^2 flasks (TPP, Switzerland) under a humidified 5% CO2 atmosphere at 37° C. The MDA MB231 cell line was maintained in high glucose DMEM (4.5 g/l; Invitrogen), foetal bovine serum (10%, Biosera UK), non-essential amino acids (ix; Invitrogen), L-glutamine (2 mM; Invitrogen) and Penicillin-Streptomycin (1% v/v, Invitrogen). The HeLa cell line was maintained in Dulbecco's Modified Eagles Media (DMEM; Invitrogen) supplemented with foetal bovine serum (10% v/v; Invitrogen), L-glutamine (2 mM; Invitrogen), non-essential amino acids (lx; Invitrogen) and Penicillin-Streptomycin (1% v/v, Invitrogen). For passaging, cells were washed with PBS (GIBCO 14040, Invitrogen, UK), incubated with trypsine (GIBCO 25300, Invitrogen, UK), and re-seeded into fresh medium. For seeding, cells were counted using a Neubauer haemocytometer (Assistant, Germany) by microscopy (Nikon, USA) on a non-adherent suspension of cells that were washed in PBS, trypsinised, centrifuged at 8° C. at 8000 rpm for 5 min and re-suspended in fresh medium.
(§3) The cells were grown in normal cell culture conditions at 37° C. under a 5% CO2 humidified atmosphere using appropriate medium. The cell count was adjusted to 10^5 cells/ml and 5,000-20,000 cells were added per well depending on the cell line. The cells were incubated for 24 hours and 1 μl of the appropriate inhibitor concentrations were added to the wells in triplicates. After 72 h of continuous exposure to each compound, the cytotoxicity was determined using the 3-(4,5-Dimethylthiazol-2-yl)-2,5-diphenyltetrazolium bromide (MTT) (Lancaster Synthesis Ltd, UK) colorimetric assay.^[34 Absorbance was quantified by spectrophotometry at λ=570 nm (Envision Plate Reader, PerkinElmer, USA). IC50 values were calculated by a dose-response analysis using the GraphPad Prism® software.

The test system of test [4] is MDA MB 231 (Triple negative breast cancer cell line). In words: MTT cytotoxicity assay of C8-linked PDD monomers. Particulars: Homo sapiens, 72 hours exposure. The test is classed as cell-based. As for the experimental part: as §2, §3
The test system of test [5] is NFκB transcription factor binding sequence (duplex oligonucleotide). In words: DNA adduct formation by HPLC. Particulars: 4:1 molar ratio ligand:oligonucleotide, room temperature. As for the experimental part:
Interaction of C8-linked PDD monomers with duplex transcription factor consensus sequence was studied with an HPLC assay utilizing a X-bridge MS C18 2.5 μM OST column (2.3×50 mm) and a gradient of 40% acetonitrile/water and 100 mM TEAB ([…])/water as mobile phase with a flow rate of 0.5 mL/min and UV detection at 254 nm. A 4:1 molar ratio of ligand:oligonucleotide was used, with each single-stranded oligonucleotide dissolved in 1 M ammonium acetate to form stock solutions of 1 mM. The oligonucleotides were initially annealed by heating their 1 mM solutions to 70° C. for 10 mins followed by gradual cooling over 8 hours and storage overnight at −20° C. Working solutions of oligonucleotides of 25 μM were then prepared by diluting the annealed stock solutions with 100 mM ammonium acetate. The ligands were dissolved in DMSO to form a stock solution of 10 mM which was stored at −20° C. for no longer than four months. Working solutions of the drug of 100 μM were prepared by diluting the stock solution with 100 mM ammonium acetate. The working solutions of the ligands were added to the working solution the oligonucleotides at RT, and the mixture incubated for different time intervals at room temperature.

With `COC(=O)c1cc2cc(NC(=O)c3cc(NC(=O)CCCOc4cc5c(cc4OC)C(=O)N4CCCC[C@H]4C=N5)cn3C)ccc2s1` [Compound 13, Methyl (S)-5-(4-(4-((2-methoxy-12-oxo-6a,7,8,9,10,12-hexa-hydrobenzo[e]pyrido[1,2-a][1,4]diazepin-3-yl)oxy)butanamido)-1-methyl-1H-pyrrole-2-carboxamido)benzo[b]thiophene-2-carboxylate], in test [1], the ΔTm AP-1 (1st transition) was found to be 11 °C and the ΔTm AP-1 (2ND transition) was determined as 19 °C. In test [2], the ΔTm NFκB (1st transition) turned out to be 12 °C and the ΔTm NFκB (2ND transition) amounted to 23 °C. In addition, the IC50 in test [3] is 0.6 ± 0.4 nM. In addition, the midpoint of inhibition in test [4], the IC50, lay at 64 ± 9.6 nM. Besides, in test [5], the “DNA adduct formation (HPLC chromatogram)” value is on record as “DNA adduct formation”.

With `COC(=O)c1cc2cc(NC(=O)c3nc(NC(=O)CCCOc4cc5c(cc4OC)C(=O)N4CCCC[C@H]4C=N5)cn3C)ccc2s1` [Compound 17, Methyl (S)-5-(4-(4-((2-methoxy-12-oxo-6a,7,8,9,10,12-hexa-hydrobenzo[e]pyrido[1,2-a][1,4]diazepin-3-yl)oxy)butanamido)-1-methyl-1H-imidazole-2-carboxamido)benzo[b]thiophene-2-carboxylate], in test [1], the ΔTm AP-1 (1st transition) worked out at 13 °C and the ΔTm AP-1 (2ND transition) was determined as 18 °C. In test [2], the ΔTm NFκB (1st transition) came out at 11 °C and the ΔTm NFκB (2ND transition) amounted to 26 °C. Further, the IC50 in test [3] stood at 1.2 ± 0.8 nM. Besides, the half-inhibitory concentration (IC50) in test [4] stood at 21 ± 1.8 nM. Besides, in test [5], the “DNA adduct formation (HPLC chromatogram)” value was “DNA adduct formation”.

`COC(=O)c1cc(-c2ccc(NC(=O)c3nc(NC(=O)CCCOc4cc5c(cc4OC)C(=O)N4CCCC[C@H]4C=N5)cn3C)cc2)cn1C` [Compound 20, Methyl (S)-4-(4-(4-(4-((2-methoxy-12-oxo-6a,7,8,9,10,12-hexahydrobenzo[e]pyrido[1,2-a][1,4]diazepin-3-yl)oxy)butanamido)-1-methyl-1H-imidazole-2-carboxamido)phenyl)-1-methyl-1H-pyrrole-2-carboxylate]: in test [1], the ΔTm AP-1 (1st transition) amounted to 8 °C and the ΔTm AP-1 (2ND transition) came to 13 °C. In test [2], the ΔTm NFκB (1st transition) came out at 9 °C and the ΔTm NFκB (2ND transition) was 12 °C. Also, in test [3], inhibition was half-maximal at 0.14 ± 0.09 nM (IC50). In test [4], this compound gave an IC50 of 0.3 ± 0.22 nM. Besides, the “DNA adduct formation (HPLC chromatogram)” value in test [5] is on record as “DNA adduct formation”.

On to `COC(=O)c1cc(-c2ccc(NC(=O)c3cc(NC(=O)CCCOc4cc5c(cc4OC)C(=O)N4CCCC[C@H]4C=N5)cn3C)cc2)cn1C` [Compound 24, Methyl (S)-4-(4-(4-(4-((2-methoxy-12-oxo-6a,7,8,9,10,12-hexahydrobenzo[e]pyrido[1,2-a][1,4]diazepin-3-yl)oxy)butanamido)-1-methyl-1H-pyrrole-2-carboxamido)phenyl)-1-methyl-1H-pyrrole-2-carboxylate], for which, in test [1], the ΔTm AP-1 (1st transition) is 9 °C and the ΔTm AP-1 (2ND transition) stood at 15 °C. In test [2], the ΔTm NFκB (1st transition) amounted to 10 °C and the ΔTm NFκB (2ND transition) worked out at 14 °C. The compound further came in with an IC50 in test [3] of 1 ± 0.12 nM. In test [4], this compound registered an IC50 of 0.8 ± 0.66 nM. In addition, the “DNA adduct formation (HPLC chromatogram)” value in test [5] was “DNA adduct formation”.
